Test results taken from patent publication US20010049390A1, “Prevention of pest feed harm on a fibrous product” (priority 2000, published 2001).

What was measured:
[1] = system: middle instar larvae webbing clothes moth (Tineola bisselliella); experiment: Test Example 2 / Comparative Example 2: pest feed harm on treated wool muslin preserved for 2 weeks before infestation; assay type: in vivo; set-up: key: “+++” for a heavy level of the pest feed harm; “++” for a normal level of the pest feed harm; “+” for a minor level of the pest feed harm; “−” for no visual feed harm; conditions: preserved at 25±2° C. for 2 weeks before test, 10 larvae, 7 days of infestation, repeats 1-5
Experimental: One-tenth (0.1) milliliter of acetone solutions composed of 0.1% w/v and 0.3% w/v of the present compound, respectively, was eye-dropped with a pipette onto wool muslins.
Each of the resulting wool muslins was then preserved at 25±2° C. for 2 weeks. After the 2 weeks, each of the wool muslins was placed on the bottom portion of a plastic container.
Ten (10) middle instar larvae webbing clothes moth (Tineola bisselliella) were then placed, respectively, into the plastic container and a nylon net was set on the top portion of the plastic container to cover the opening thereof. After 7 days of infestation under 25±2° C., the pest feed harm on the wool muslins were examined. The standards to the pest feed harm were “+++” for a heavy level of the pest feed harm, “++” for a normal level of the pest feed harm, “+” for a minor level of the pest feed harm and “−” for no visual feed harm. The tests were repeated 5 times.
(§1) Further, as a control, a test utilizing a wool muslin to which no composition was applied was similarly conducted. The control was repeated twice.
One-tenth (0.1) milliliter of acetone solutions composed of 0.1% w/v and 0.3% w/v of Comparative compound 1, respectively, was eye-dropped with a pipette onto wool muslins.
Ten (10) middle instar larvae webbing clothes moth (Tineola bisselliella) were then placed, respectively, into the plastic container and a nylon net was set on the top portion of the plastic container to cover the opening thereof. After 7 days of infestation under 25±2° C., the pest feed harm on the wool muslins were examined. The standards to the pest feed harm were “+++” for a heavy level of the pest feed harm, “++” for a normal level of the pest feed harm, “+” for a minor level of the pest feed harm and “−” for no visual pest feed harm. The comparative experiments were repeated 5 times.

[2] = system: middle instar larvae webbing clothes moth (Tineola bisselliella); experiment: Test Example 1 / Comparative Example 1: pest feed harm on treated wool muslin, infested after drying; assay type: in vivo; set-up: key: “+++” for a heavy level of the pest feed harm; “++” for a normal level of the pest feed harm; “+” for a minor level of the pest feed harm; “−” for no visual pest feed harm; conditions: 10 larvae, 7 days of infestation at 25±2° C., repeats 1-5
Text: One-tenth (0.1) milliliter of acetone solutions composed of 0.1% w/v and 0.3% w/v of 1-methyl-2-nitro-3-[(3-tetrahydrofuryl)methyl]guanidine (hereinafter referred to as the present compound), respectively, was eye-dropped with a pipette onto wool muslins.
Each of the resulting wool muslins was then allowed to dry and was placed on the bottom portion of a plastic container.
Ten (10) middle instar larvae webbing clothes moth (Tineola bisselliella) were then placed, respectively, into the plastic container, and a nylon net was set on the top portion of the plastic container to cover the opening thereof. After 7 days of infestation under 25±2° C., the pest feed harm on the wool muslins were examined. The standards to the pest feed harm were “+++” for a heavy level of the pest feed harm, “++” for a normal level of the pest feed harm, “+” for a minor level of the pest feed harm and “−” for no visual pest feed harm. The tests were repeated 5 times.
as §1
One-tenth (0.1) milliliter of acetone solutions composed of 0.1% w/v and 0.3% w/v of (E)-1-ethynyl-2-methyl-pent-2-enyl-(1R)-cis,trans-chrysanthemate (hereinafter referred to as comparative compound 1), respectively, was eye-dropped with a pipette onto wool muslins.
Ten (10) middle instar larvae webbing clothes moth (Tineola bisselliella) were then placed, respectively, into the plastic container, and a nylon net was set on the top portion of the plastic container to cover the opening thereof. After 7 days of infestation under 25±2° C., the pest feed harm on the wool muslins were examined. The standards to the pest feed harm were “+++” for a heavy level of the pest feed harm, “++” for a normal level of the pest feed harm, “+” for a minor level of the pest feed harm and “−” for no visual pest feed harm. The comparative experiments were repeated 5 times.

[3] = application amount 25 mg/m^2 on wool muslin
[4] = application amount 75 mg/m^2 on wool muslin

With `C#CC(OC(=O)C1C(C=C(C)C)C1(C)C)/C(C)=C/CC` (mixture of isomers) [Comparative compound 1, (E)-1-ethynyl-2-methyl-pent-2-enyl-(1R)-cis,trans-chrysanthemate] the Pest feed harm [1, 3] was “+ + +”, the Pest feed harm [1, 4] was “+ + +” and the Pest feed harm [2, 3] was “+ + and +”. For the same compound, the Pest feed harm [2, 4] was “+ and + +”.
In the case of `CNC(=N[N+](=O)[O-])NCC1CCOC1` (centres unmarked) [Present compound, 1-methyl-2-nitro-3-[(3-tetrahydrofuryl)methyl]guanidine], the Pest feed harm [1, 3] is reported as “−”, the Pest feed harm [1, 4] is reported as “−” and the Pest feed harm [2, 3] is reported as “−”. The Pest feed harm [2, 4] was “−”.
